Assay results taken from PubChem BioAssay AID2060485 (Molecular Pharmacology Branch, DTP, NCI, 2025).

Test system: A375 multi-cell spheroids with HUVEC/MSC, viability
Experiment: Anticancer human tumor A375 cell line growth inhibition [GQUAD];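 note: spheroids exposed to compounds for seven days before readout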
Conditions: for IC50: curve of first compound; for viability, T/C: stronger effect = lower value
How it was run: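 Viability of tumor cells grown as complex spheroids with endothelial and stromal cells, exposed to drug combinations. Top concentration at or near clinical Cmax (else 10 microM), diluted in half-log increments.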

[1] = second compound 0.0316 µM, first compound 0.0316 µM
[2] = second compound 0.0316 µM, first compound 0.316 µM
[3] = second compound 0.1 µM, first compound 0.0316 µM
[4] = second compound 0.1 µM, first compound 0.316 µM
[5] = second compound 0.316 µM, first compound 0.0316 µM
[6] = second compound 0.316 µM, first compound 0.316 µM
[7] = second compound 1 µM, first compound 0.0316 µM
[8] = second compound 1 µM, first compound 0.316 µM
[9] = second compound 3.16 µM, first compound 0.0316 µM
[10] = second compound 3.16 µM, first compound 0.316 µM
[11] = second compound 10 µM, first compound 0.0316 µM
[12] = second compound 10 µM, first compound 0.316 µM
[13] = second compound 0.0316 µM, first compound 0.1 µM
[14] = second compound 0.0316 µM, first compound 1 µM
[15] = second compound 0.0316 µM, first compound 3.16 µM
[16] = second compound 0.0316 µM, first compound 10 µM
[17] = second compound 0.1 µM, first compound 0.1 µM
[18] = second compound 0.1 µM, first compound 1 µM
[19] = second compound 0.1 µM, first compound 3.16 µM
[20] = second compound 0.1 µM, first compound 10 µM
[21] = second compound 0.316 µM, first compound 0.1 µM
[22] = second compound 0.316 µM, first compound 1 µM
[23] = second compound 0.316 µM, first compound 3.16 µM
[24] = second compound 0.316 µM, first compound 10 µM
[25] = second compound 1 µM, first compound 0.1 µM
[26] = second compound 1 µM, first compound 1 µM
[27] = second compound 1 µM, first compound 3.16 µM
[28] = second compound 1 µM, first compound 10 µM
[29] = second compound 3.16 µM, first compound 0.1 µM
[30] = second compound 3.16 µM, first compound 1 µM
[31] = second compound 3.16 µM, first compound 3.16 µM
[32] = second compound 3.16 µM, first compound 10 µM
[33] = second compound 10 µM, first compound 0.1 µM
[34] = second compound 10 µM, first compound 1 µM
[35] = second compound 10 µM, first compound 3.16 µM
[36] = second compound 10 µM, first compound 10 µM

## Cc1[nH]c2ccccc2c1CCNCc1ccc(/C=C/C(=O)NO)cc1 + Cc1cnc(CNC(=O)c2c(=O)c3ccc(N4CCCN(C)CC4)nc3n3c2sc2ccccc23)cn1
Second compound 0.0316 µM
  IC50: 112 nM
Second compound 0.1 µM
  IC50: 48.8 nM
Second compound 0.316 µM
  IC50: 35.9 nM
Second compound 1 µM
  IC50: < 0.999 nM
Second compound 3.16 µM
  IC50: < 0.999 nM
Second compound 10 µM
  IC50: < 0.999 nM
Second compound 0.0316 µM, first compound 0.000999 µM
  viability, T/C: 98.2%
Second compound 0.0316 µM, first compound 0.00316 µM
  viability, T/C: 103%
Second compound 0.0316 µM, first compound 0.00999 µM
  viability, T/C: 123%
[1]
  viability, T/C: 113%
Second compound 0.0316 µM, first compound 0.0999 µM
  viability, T/C: 54.4%
[2]
  viability, T/C: 10.3%
Second compound 0.1 µM, first compound 0.000999 µM
  viability, T/C: 74.6%
Second compound 0.1 µM, first compound 0.00316 µM
  viability, T/C: 69.7%
Second compound 0.1 µM, first compound 0.00999 µM
  viability, T/C: 74%
[3]
  viability, T/C: 60.5%
Second compound 0.1 µM, first compound 0.0999 µM
  viability, T/C: 31.7%
[4]
  viability, T/C: 8.85%
Second compound 0.316 µM, first compound 0.000999 µM
  viability, T/C: 54.1%
Second compound 0.316 µM, first compound 0.00316 µM
  viability, T/C: 55.5%
Second compound 0.316 µM, first compound 0.00999 µM
  viability, T/C: 49%
[5]
  viability, T/C: 53.9%
Second compound 0.316 µM, first compound 0.0999 µM
  viability, T/C: 25.2%
[6]
  viability, T/C: 8.14%
Second compound 1 µM, first compound 0.000999 µM
  viability, T/C: 37.2%
Second compound 1 µM, first compound 0.00316 µM
  viability, T/C: 42.2%
Second compound 1 µM, first compound 0.00999 µM
  viability, T/C: 39.4%
[7]
  viability, T/C: 35.4%
Second compound 1 µM, first compound 0.0999 µM
  viability, T/C: 18.7%
[8]
  viability, T/C: 1.63%
Second compound 3.16 µM, first compound 0.000999 µM
  viability, T/C: 35.6%
Second compound 3.16 µM, first compound 0.00316 µM
  viability, T/C: 30.9%
Second compound 3.16 µM, first compound 0.00999 µM
  viability, T/C: 35.5%
[9]
  viability, T/C: 34.1%
Second compound 3.16 µM, first compound 0.0999 µM
  viability, T/C: 13.6%
[10]
  viability, T/C: 0.08%
Second compound 10 µM, first compound 0.000999 µM
  viability, T/C: 30.9%
Second compound 10 µM, first compound 0.00316 µM
  viability, T/C: 25.6%
Second compound 10 µM, first compound 0.00999 µM
  viability, T/C: 29.1%
[11]
  viability, T/C: 25%
Second compound 10 µM, first compound 0.0999 µM
  viability, T/C: 8.95%
[12]
  viability, T/C: 0.14%

## Nc1ccn(C2OC(CO)C(O)C2(F)F)c(=O)n1 (stereo not drawn) + Cc1cnc(CNC(=O)c2c(=O)c3ccc(N4CCCN(C)CC4)nc3n3c2sc2ccccc23)cn1
Second compound 0.0316 µM
  IC50: < 31.6 nM
Second compound 0.1 µM
  IC50: < 31.6 nM
Second compound 0.316 µM
  IC50: < 31.6 nM
Second compound 1 µM
  IC50: < 31.6 nM
Second compound 3.16 µM
  IC50: < 31.6 nM
Second compound 10 µM
  IC50: < 31.6 nM
[1]
  viability, T/C: 22.9%
[13]
  viability, T/C: 10.1%
[2]
  viability, T/C: 10.4%
[14]
  viability, T/C: 10.4%
[15]
  viability, T/C: 8.9%
[16]
  viability, T/C: 7.49%
[3]
  viability, T/C: 23.4%
[17]
  viability, T/C: 10.8%
[4]
  viability, T/C: 9.94%
[18]
  viability, T/C: 10.3%
[19]
  viability, T/C: 9.17%
[20]
  viability, T/C: 7.13%
[5]
  viability, T/C: 22.3%
[21]
  viability, T/C: 12.7%
[6]
  viability, T/C: 9.56%
[22]
  viability, T/C: 11.4%
[23]
  viability, T/C: 10%
[24]
  viability, T/C: 7.6%
[7]
  viability, T/C: 28.3%
[25]
  viability, T/C: 14.9%
[8]
  viability, T/C: 13.3%
[26]
  viability, T/C: 13.8%
[27]
  viability, T/C: 12.5%
[28]
  viability, T/C: 7.97%
[9]
  viability, T/C: 29%
[29]
  viability, T/C: 20.9%
[10]
  viability, T/C: 18.9%
[30]
  viability, T/C: 14.1%
[31]
  viability, T/C: 11.8%
[32]
  viability, T/C: 6.29%
[11]
  viability, T/C: 24.9%
[33]
  viability, T/C: 22.1%
[12]
  viability, T/C: 19.1%
[34]
  viability, T/C: 14.6%
[35]
  viability, T/C: 10.9%
[36]
  viability, T/C: 2.89%

## O=C(NO)c1cnc(N2CCN(S(=O)(=O)c3ccc4ccccc4c3)CC2)nc1 + Cc1cnc(CNC(=O)c2c(=O)c3ccc(N4CCCN(C)CC4)nc3n3c2sc2ccccc23)cn1
Second compound 0.0316 µM
  IC50: 210 nM
Second compound 0.1 µM
  IC50: 124 nM
Second compound 0.316 µM
  IC50: 109 nM
Second compound 1 µM
  IC50: < 31.6 nM
Second compound 3.16 µM
  IC50: < 31.6 nM
Second compound 10 µM
  IC50: < 31.6 nM
[1]
  viability, T/C: 115%
[13]
  viability, T/C: 124%
[2]
  viability, T/C: 11.9%
[14]
  viability, T/C: 0.22%
[15]
  viability, T/C: 0.16%
[16]
  viability, T/C: 0.19%
[3]
  viability, T/C: 75.2%
[17]
  viability, T/C: 59.1%
[4]
  viability, T/C: 10.8%
[18]
  viability, T/C: 0.18%
[19]
  viability, T/C: 0.13%
[20]
  viability, T/C: 0.17%
[5]
  viability, T/C: 64.1%
[21]
  viability, T/C: 53.2%
[6]
  viability, T/C: 9.31%
[22]
  viability, T/C: 0.13%
[23]
  viability, T/C: 0.11%
[24]
  viability, T/C: 0.14%
[7]
  viability, T/C: 44.6%
[25]
  viability, T/C: 36.8%
[8]
  viability, T/C: 0.9%
[26]
  viability, T/C: 0.11%
[27]
  viability, T/C: 0.09%
[28]
  viability, T/C: 0.12%
[9]
  viability, T/C: 32.8%
[29]
  viability, T/C: 23.3%
[10]
  viability, T/C: 0.17%
[30]
  viability, T/C: 0.11%
[31]
  viability, T/C: 0.11%
[32]
  viability, T/C: 0.15%
[11]
  viability, T/C: 28.5%
[33]
  viability, T/C: 22.6%
[12]
  viability, T/C: 0.2%
[34]
  viability, T/C: 0.12%
[35]
  viability, T/C: 0.18%
[36]
  viability, T/C: 0.21%

## O=c1[nH]cc(F)c(=O)[nH]1 + Cc1cnc(CNC(=O)c2c(=O)c3ccc(N4CCCN(C)CC4)nc3n3c2sc2ccccc23)cn1
Second compound 0.0316 µM
  IC50: > 10000 nM
Second compound 0.1 µM
  IC50: > 10000 nM
Second compound 0.316 µM
  IC50: 675 nM
Second compound 1 µM
  IC50: < 31.6 nM
Second compound 3.16 µM
  IC50: < 31.6 nM
Second compound 10 µM
  IC50: < 31.6 nM
[1]
  viability, T/C: 98.5%
[13]
  viability, T/C: 105%
[2]
  viability, T/C: 92.4%
[14]
  viability, T/C: 107%
[15]
  viability, T/C: 112%
[16]
  viability, T/C: 96.5%
[3]
  viability, T/C: 75.9%
[17]
  viability, T/C: 67.8%
[4]
  viability, T/C: 82.8%
[18]
  viability, T/C: 81.4%
[19]
  viability, T/C: 88.7%
[20]
  viability, T/C: 63.1%
[5]
  viability, T/C: 56.8%
[21]
  viability, T/C: 51.4%
[6]
  viability, T/C: 50.7%
[22]
  viability, T/C: 49.4%
[23]
  viability, T/C: 48.6%
[24]
  viability, T/C: 45.3%
[7]
  viability, T/C: 44.9%
[25]
  viability, T/C: 41.3%
[8]
  viability, T/C: 47.6%
[26]
  viability, T/C: 51.7%
[27]
  viability, T/C: 45.8%
[28]
  viability, T/C: 37.7%
[9]
  viability, T/C: 40.3%
[29]
  viability, T/C: 33.4%
[10]
  viability, T/C: 34.6%
[30]
  viability, T/C: 36%
[31]
  viability, T/C: 39%
[32]
  viability, T/C: 30.7%
[11]
  viability, T/C: 37.3%
[33]
  viability, T/C: 30%
[12]
  viability, T/C: 32.6%
[34]
  viability, T/C: 33.9%
[35]
  viability, T/C: 30.3%
[36]
  viability, T/C: 29.4%
